{"source": "patent US10835170B2", "about": "“Methods for detecting neuronal oscillation in the spinal cord associated with pain and diseases or disorders of the nervous system” (Rhode Island Hospital, priority 2015, dated 2020)", "tested_on": "spinal cord dorsal horn (L4) neuronal oscillation", "test": "Spinal cord dorsal horn LFP/PSD recording after intradermal capsaicin injection (model of acute pain)", "assay_type": "in vivo, rat", "conditions": "anesthetized rats, FIG. 1B", "experimental": "FIG. 1A is a schematic showing electrode placement in the spinal cord dorsal horn (L4) for the recoding of local field potential (LFP) from anesthetized rats (n=3 rats/group).\nExperiments were conducted on anesthetized Sprague Dawley rats (200-250 g). […] LFP was sampled at a high frequency (25,000 Hz) and down-sampled offline to 250 Hz.\nNatural sensory stimuli (e.g. brush and pinch) and intradermal injections of capsaicin were applied to the receptive field in the hindpaw corresponding to the recording site in the spinal cord. […] PSD plots the distribution of the power amplitude of a waveform as a function of frequency. Spontaneous oscillation in the spinal cord dorsal horn was enhanced compared to baseline LFP recording in response to capsaicin injection in the ipsilateral foot within physiologically relevant frequency bands, e.g., theta and alpha, oscillated at baseline. […] Thus, oscillation was normalized with systemic administration of an analgesic compound.", "data": [{"smiles": "COc1cc(CNC(=O)CCCC/C=C/C(C)C)ccc1O", "note": "[capsaicin]", "values": [{"measurement": "Spontaneous oscillation in the spinal cord dorsal horn (PSD) compared to baseline LFP recording", "setting": "intradermal 5% capsaicin injection in the ipsilateral foot, theta and alpha bands", "value": "enhanced"}]}, {"smiles": "CC(C)Cc1ccc(C(C)C(=O)O)cc1", "note": "(centres unmarked) [ibuprofen]", "values": [{"measurement": "Effect on capsaicin-enhanced PSD normalized to baseline", "setting": "ibuprofen 400 mg/Kg intraperitoneally, after intradermal 5% capsaicin, n=3 rats/group", "value": "mitigation of the enhanced PSD"}]}]}
